According to publication PMC11078216, “Discovery of potent and selective activity-based probes (ABPs) for the deubiquitinating enzyme USP30” (RSC Chemical Biology, 2024):

Tests used:
Test in all cases: ABPP chemical proteomics (LC-MS/MS) in HEK293T cells
Assay type in all cases: cell-based
[1] = biological target: T1, PARK7 (Homo sapiens, UniProt Q99497); settings: 30 nM, 10 min
T1 construct: endogenous in cells; host or cells: HEK293T
Method: (§1) To explore the selectivity of IMP-2587 and IMP-2586 across the whole proteome, we performed quantitative activity-based protein profiling (ABPP) in HEK293T cells following treatment with IMP-2587 or IMP-2586 (Fig. 3a). After ABP incubation, cells were lysed, and probe-labelled proteins were ligated to biotinylated capture reagents.[27] […] USP30 was outcompeted by corresponding parent inhibitors for each ABP (Fig. 5b and d and Tables S3 and S5, ESI ^†), confirming the high potency and rapid engagement of IMP-2587 and IMP-2586 in cells. […] DESI1 and DESI2 are small ubiquitin-related modifier (SUMO) proteases,[3,29–32] and IMP-2587 and IMP-2586 may offer a starting point for future development of DESI ABPs. […]
(§2) d) Live cell probe incubation, lysate click chemistry and precipitation 6-well HEK293T cells were incubated with media containing compounds ABP 2 and ABP 4 at indicated concentrations for 1 h at 37 °C. The cells were washed with PBS and lysed with lysis buffer (50 μL (1% (v/v) Triton X-100, 0.1% (w/v) sodium dodecyl sulfate (SDS), EDTA-free complete protease inhibitor cocktail (1×, Roche) in PBS on ice for 10 min. The lysates were scraped and transferred to corresponding Lo-Bind Eppendorfs. Each lysate was sonicated for 1 minute, and the samples centrifuges at 5,000 x g at 4 °C for 5 minutes to pellet insoluble cellular debris. The supernatant was collected, and protein concentration was determined using the DC Protein Assay (Bio-Rad) as per manufacturer’s instructions, and normalised to lowest concentrated sample (e.g. 1 mg/mL, using lysis buffer). The following “click mixture” was prepared separately, preparing 6 μL for every 100 μL of […]
(§3) Capture reagent (AzRB/AzT for ABP 2, YnT/YnB for ABP 4 10 mM in DMSO, 1 vol; final concentration […]
(§4) CuSO4 (50 mM in water, 2 vol; final concentration in reaction 1 mM)
(§5) TCEP (50 mM in water, 2 vol; final concentration in reaction 1 mM)
(§6) TBTA (10 mM in DMSO, 1 vol; final concentration in reaction 100 µM)
(§7) The click mixture was vortexed and incubated at room temperature for 2 min before 6 μL of the mixture was added to every 100 μL of lysate. The reaction mixtures were shaken at room temperature for 1 h before being quenched with EDTA (500 mM in H2O) to a final concentration of 10 mM.
(§8) Proteins were precipitated by adding H2O (1 vol), MeOH (2 vol) and CHCl3 (0.5 vol), vortexing briefly then centrifuging at 17,000 × g for 5 min. The top H2O/MeOH layer was discarded and the middle layer of protein pellet and lower CHCl3 layer retained. The suspension was washed with MeOH (300 μL), and sonicated to break up the pellet. The proteins were pelleted by centrifugation at 10,000–17000 × g for 5–10 min or until a compact pellet was formed. The protein pellet was washed once more with MeOH (1 mL). The pellet was resuspended by sonicating and completely dissolving in 1% (w/v) SDS in PBS (to 5 mg/mL protein) before being made up to 1 mg/mL protein with PBS.
(§9) The lysate samples (10-20 μg) were mixed with 4× Laemmli sample loading buffer (250 mM Tris -HCl pH 6.8, 30% (v/v) glycerol, 10% (w/v) SDS, 0.05% (w/v) bromophenol blue) supplemented with 20% v/v β-mercaptoethanol (BME) and boiled for 10 min at 95 °C. The resulting protein samples were separated according to the protocol in section 3.2.c. Gel were imaged on a Typhoon imager (GE Healthcare; λEx 532 nm, λEm 575 nm for TAMRA. For protein loading quantification, gels were stained with Coomassie blue staining solution overnight, rinsed with water and imaged on an ImageQuant™ LAS 4000 imager (GE Healthcare). f) Neutravidin biotin enrichment (Affinity pull-down)
(§10) Click chemistry and precipitation steps were carried out as described in section 3.2.d, on at least 400ug of protein per sample. The pellet was resuspended by sonicating and completely dissolving in 1% (w/v) SDS in HEPES 50 mM pH 8.0, before being made up to 1 mg/mL protein with HEPES 50 mM pH 8.0 to […]
(§11) achieve a final concentration of 0.2% SDS. 20uL of each samples was collected as TL (Total lysate) […]
(§12) samples. […]

[2] = biological target: T2, PPAT (Homo sapiens, UniProt Q06203)
T2 construct: endogenous in cells; host or cells: HEK293T
T2 sequence (Q06203 12-517): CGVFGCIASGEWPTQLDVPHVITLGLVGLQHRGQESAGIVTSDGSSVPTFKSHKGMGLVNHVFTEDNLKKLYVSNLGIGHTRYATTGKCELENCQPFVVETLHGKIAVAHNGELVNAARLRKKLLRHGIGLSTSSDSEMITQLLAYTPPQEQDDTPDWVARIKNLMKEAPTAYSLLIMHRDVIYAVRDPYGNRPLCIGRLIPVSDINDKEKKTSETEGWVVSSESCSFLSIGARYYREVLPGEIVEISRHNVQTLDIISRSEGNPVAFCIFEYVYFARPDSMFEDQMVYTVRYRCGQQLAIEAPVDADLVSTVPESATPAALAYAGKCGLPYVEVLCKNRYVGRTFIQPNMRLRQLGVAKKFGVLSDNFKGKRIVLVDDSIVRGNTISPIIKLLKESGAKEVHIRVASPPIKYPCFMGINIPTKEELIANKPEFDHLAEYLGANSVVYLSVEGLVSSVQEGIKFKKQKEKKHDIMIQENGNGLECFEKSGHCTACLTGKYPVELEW
Method: as §1, §2, §3, §4, §5, §6, §7, §8, §9, §10, §11, §12

[3] = biological target: T3, SRP68 (Homo sapiens, UniProt Q9UHB9)
T3 construct: endogenous in cells; host or cells: HEK293T
T3 sequence (Q9UHB9 whole entry): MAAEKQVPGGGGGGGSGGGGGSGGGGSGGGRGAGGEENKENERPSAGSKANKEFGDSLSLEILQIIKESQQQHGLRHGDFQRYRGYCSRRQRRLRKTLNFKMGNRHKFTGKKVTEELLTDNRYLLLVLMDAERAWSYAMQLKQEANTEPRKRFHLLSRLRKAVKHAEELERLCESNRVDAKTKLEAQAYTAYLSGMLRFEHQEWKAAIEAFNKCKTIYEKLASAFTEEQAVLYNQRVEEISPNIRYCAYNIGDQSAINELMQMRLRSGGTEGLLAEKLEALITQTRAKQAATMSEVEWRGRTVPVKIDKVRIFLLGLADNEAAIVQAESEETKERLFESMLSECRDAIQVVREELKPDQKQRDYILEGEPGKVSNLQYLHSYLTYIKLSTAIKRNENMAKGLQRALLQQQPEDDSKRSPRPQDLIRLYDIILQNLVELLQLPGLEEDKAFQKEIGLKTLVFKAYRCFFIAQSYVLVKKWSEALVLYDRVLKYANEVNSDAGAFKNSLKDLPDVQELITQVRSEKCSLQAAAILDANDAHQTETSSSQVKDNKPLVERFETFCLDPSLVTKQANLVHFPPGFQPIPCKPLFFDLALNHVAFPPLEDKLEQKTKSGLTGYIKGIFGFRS
Method: as §1, §2, §3, §4, §5, §6, §7, §8, §9, §10, §11, §12

[4] = biological target: T4, PGAP1 (Homo sapiens, UniProt Q75T13)
T4 construct: endogenous in cells; host or cells: HEK293T
T4 sequence (Q75T13 whole entry): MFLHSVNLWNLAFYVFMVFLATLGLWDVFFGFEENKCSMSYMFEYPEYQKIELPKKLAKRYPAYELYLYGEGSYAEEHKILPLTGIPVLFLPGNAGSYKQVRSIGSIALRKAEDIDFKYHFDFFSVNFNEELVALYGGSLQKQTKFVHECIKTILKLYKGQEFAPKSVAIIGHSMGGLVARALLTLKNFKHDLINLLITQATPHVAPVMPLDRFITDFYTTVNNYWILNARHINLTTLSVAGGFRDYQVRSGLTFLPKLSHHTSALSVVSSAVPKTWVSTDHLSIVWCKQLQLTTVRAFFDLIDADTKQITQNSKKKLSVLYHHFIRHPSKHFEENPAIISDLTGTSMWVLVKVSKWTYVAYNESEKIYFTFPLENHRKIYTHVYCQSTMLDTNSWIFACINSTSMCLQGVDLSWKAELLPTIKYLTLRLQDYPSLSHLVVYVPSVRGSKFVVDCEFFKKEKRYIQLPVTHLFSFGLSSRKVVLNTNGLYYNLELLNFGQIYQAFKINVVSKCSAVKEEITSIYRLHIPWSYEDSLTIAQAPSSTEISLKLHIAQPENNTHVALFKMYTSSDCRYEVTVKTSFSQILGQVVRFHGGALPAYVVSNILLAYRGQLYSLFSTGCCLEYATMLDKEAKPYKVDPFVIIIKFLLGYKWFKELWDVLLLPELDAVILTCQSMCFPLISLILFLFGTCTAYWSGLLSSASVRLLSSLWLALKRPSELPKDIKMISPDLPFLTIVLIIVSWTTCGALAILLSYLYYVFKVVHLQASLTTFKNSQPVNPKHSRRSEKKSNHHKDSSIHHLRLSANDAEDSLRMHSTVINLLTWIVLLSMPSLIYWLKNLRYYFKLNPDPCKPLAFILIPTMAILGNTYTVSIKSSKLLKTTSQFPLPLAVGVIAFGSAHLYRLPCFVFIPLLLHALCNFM
Method: as §1, §2, §3, §4, §5, §6, §7, §8, §9, §10, §11, §12

[5] = biological target: T5, ALDH9A1 (Homo sapiens, UniProt P49189)
T5 construct: endogenous in cells; host or cells: HEK293T
T5 sequence (P49189 whole entry): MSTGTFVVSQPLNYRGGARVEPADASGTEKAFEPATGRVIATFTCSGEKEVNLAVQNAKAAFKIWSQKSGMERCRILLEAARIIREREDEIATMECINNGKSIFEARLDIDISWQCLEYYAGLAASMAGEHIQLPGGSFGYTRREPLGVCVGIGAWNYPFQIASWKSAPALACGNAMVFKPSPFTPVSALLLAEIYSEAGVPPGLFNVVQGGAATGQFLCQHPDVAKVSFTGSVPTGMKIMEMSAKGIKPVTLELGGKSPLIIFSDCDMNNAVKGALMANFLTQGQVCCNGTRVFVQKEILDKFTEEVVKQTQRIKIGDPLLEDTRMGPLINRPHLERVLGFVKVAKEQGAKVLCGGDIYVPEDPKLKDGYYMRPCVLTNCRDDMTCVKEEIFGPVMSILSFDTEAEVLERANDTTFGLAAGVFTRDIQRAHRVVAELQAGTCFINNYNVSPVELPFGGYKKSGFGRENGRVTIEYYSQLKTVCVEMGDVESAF
Method: as §1, §2, §3, §4, §5, §6, §7, §8, §9, §10, §11, §12

[6] = biological target: T6, FAAH (Homo sapiens, UniProt O00519)
T6 construct: endogenous in cells; host or cells: HEK293T
T6 sequence (O00519 whole entry): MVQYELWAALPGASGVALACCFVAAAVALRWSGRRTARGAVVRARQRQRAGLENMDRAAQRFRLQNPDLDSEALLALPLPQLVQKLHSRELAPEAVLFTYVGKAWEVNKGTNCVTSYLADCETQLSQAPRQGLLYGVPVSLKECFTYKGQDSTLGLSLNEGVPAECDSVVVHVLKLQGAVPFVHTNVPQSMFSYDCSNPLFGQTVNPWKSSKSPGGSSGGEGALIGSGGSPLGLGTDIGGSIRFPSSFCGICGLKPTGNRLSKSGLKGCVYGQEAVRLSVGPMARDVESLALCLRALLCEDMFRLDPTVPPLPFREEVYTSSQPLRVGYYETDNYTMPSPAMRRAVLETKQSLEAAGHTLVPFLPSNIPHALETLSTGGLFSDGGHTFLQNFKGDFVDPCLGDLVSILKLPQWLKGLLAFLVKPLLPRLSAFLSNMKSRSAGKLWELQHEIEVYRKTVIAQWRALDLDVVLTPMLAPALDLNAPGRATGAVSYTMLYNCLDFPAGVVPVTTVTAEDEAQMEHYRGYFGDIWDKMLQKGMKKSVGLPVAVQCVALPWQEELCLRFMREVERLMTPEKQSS
Method: as §1, §2, §3, §4, §5, §6, §7, §8, §9, §10, §11, §12

[7] = biological target: T7, ALDH3A2 (Homo sapiens, UniProt P51648)
T7 construct: endogenous in cells; host or cells: HEK293T
Method: as §1, §2, §3, §4, §5, §6, §7, §8, §9, §10, §11, §12

[8] = biological target: T8, ABHD6 (Homo sapiens, UniProt Q9BV23)
T8 construct: endogenous in cells; host or cells: HEK293T
T8 sequence (Q9BV23 whole entry): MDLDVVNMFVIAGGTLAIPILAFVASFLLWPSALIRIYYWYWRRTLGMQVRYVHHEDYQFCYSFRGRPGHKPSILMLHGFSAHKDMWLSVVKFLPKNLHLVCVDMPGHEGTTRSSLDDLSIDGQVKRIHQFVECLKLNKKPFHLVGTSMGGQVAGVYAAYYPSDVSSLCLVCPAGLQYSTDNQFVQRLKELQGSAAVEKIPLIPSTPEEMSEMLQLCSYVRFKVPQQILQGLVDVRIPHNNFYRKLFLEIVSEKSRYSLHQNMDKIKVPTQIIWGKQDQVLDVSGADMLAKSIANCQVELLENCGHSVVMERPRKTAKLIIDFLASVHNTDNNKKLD
Method: as §1, §2, §3, §4, §5, §6, §7, §8, §9, §10, §11, §12

[9] = biological target: T9, MRPS2 (Homo sapiens, UniProt Q9Y399)
T9 construct: endogenous in cells; host or cells: HEK293T
Method: as §1, §2, §3, §4, §5, §6, §7, §8, §9, §10, §11, §12

[10] = biological target: T10, NIT1 (Homo sapiens, UniProt Q86X76)
T10 construct: endogenous in cells; host or cells: HEK293T
Method: as §1, §2, §3, §4, §5, §6, §7, §8, §9, §10, §11, §12

[11] = biological target: T11, FAAH2 (Homo sapiens, UniProt Q6GMR7)
T11 construct: endogenous in cells; host or cells: HEK293T
T11 sequence (Q6GMR7 whole entry): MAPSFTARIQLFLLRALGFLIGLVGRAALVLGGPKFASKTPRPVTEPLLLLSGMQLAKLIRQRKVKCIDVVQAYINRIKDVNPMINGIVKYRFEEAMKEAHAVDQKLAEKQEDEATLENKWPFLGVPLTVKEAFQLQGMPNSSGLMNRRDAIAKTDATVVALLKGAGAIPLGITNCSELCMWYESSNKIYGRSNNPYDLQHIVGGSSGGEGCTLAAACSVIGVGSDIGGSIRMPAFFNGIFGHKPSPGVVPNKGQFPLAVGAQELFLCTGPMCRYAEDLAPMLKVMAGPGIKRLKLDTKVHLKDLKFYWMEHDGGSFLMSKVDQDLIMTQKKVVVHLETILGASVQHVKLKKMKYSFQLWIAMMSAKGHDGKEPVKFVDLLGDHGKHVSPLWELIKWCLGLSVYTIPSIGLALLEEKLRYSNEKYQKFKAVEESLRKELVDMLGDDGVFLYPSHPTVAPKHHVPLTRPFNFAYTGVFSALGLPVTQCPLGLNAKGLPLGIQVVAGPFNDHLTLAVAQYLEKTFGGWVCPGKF
Method: as §1, §2, §3, §4, §5, §6, §7, §8, §9, §10, §11, §12

[12] = biological target: T12, ALDH1A1 (Homo sapiens, UniProt P00352)
T12 construct: endogenous in cells; host or cells: HEK293T
T12 sequence (P00352 whole entry): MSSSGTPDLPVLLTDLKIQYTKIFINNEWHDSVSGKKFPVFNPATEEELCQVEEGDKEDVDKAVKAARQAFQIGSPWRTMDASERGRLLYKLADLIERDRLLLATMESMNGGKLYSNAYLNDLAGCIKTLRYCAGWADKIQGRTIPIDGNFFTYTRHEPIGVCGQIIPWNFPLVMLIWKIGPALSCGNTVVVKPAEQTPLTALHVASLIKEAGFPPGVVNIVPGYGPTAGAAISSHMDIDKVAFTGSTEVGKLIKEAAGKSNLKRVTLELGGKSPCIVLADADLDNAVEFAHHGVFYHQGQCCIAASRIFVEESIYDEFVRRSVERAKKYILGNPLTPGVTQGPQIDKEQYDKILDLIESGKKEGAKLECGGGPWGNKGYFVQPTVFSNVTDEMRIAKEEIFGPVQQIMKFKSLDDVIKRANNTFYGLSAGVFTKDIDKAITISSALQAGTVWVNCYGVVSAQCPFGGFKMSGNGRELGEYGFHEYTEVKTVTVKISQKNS
Method: as §1, §2, §3, §4, §5, §6, §7, §8, §9, §10, §11, §12

[13] = biological target: T13, UCHL1 (Homo sapiens, UniProt P09936); parameters: endogenous in cells; host or cells: HEK293T; settings: IMP-2587 labelling vs DMSO, 30 nM, 10 min, HEK293T (Table S2, Fig.5a)
T13 sequence (P09936 1-223): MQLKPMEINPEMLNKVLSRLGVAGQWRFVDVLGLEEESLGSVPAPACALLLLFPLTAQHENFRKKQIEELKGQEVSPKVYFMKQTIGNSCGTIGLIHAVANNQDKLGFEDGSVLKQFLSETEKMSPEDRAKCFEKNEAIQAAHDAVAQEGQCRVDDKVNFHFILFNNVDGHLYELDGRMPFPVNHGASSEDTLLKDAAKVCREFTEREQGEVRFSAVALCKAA
Method: as §1
as §9, with “The resulting protein samples were separated according to the protocol in section 3.2.c.” left out, “pull-down) […]” for “pull-down)”

[14] = IMP-2586 labelling vs DMSO, 30 nM, 10 min, HEK293T (Table S4, Fig.5c)
[15] = IMP-2587 labelling vs DMSO, 30 nM, 10 min, HEK293T (Table S2, Fig.5a)
[16] = compound 1 out-competition with IMP-2587 labelling, HEK293T (Table S3, Fig.5b)
[17] = compound 3 out-competition with IMP-2586 labelling, HEK293T (Table S5, Fig.5d)

T1 sequence (Q99497 whole entry): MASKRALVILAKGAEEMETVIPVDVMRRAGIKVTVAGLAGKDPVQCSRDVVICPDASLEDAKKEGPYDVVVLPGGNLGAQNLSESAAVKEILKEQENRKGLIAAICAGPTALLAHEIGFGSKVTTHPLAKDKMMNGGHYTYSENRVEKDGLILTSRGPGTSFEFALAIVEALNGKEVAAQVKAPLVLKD

## N#CN1CC[C@@H](NC(=O)c2cc(-c3ccccc3Oc3ccc(N=[N+]=[N-])cc3)n[nH]2)C1 [IMP-2586]
[1]; IMP-2586 labelling vs DMSO, HEK293T (Table S4, Fig.5c)
  Difference (log2 fold change of enrichment): 1.30
[2]; [14]
  Difference (log2 fold change of enrichment): 0.83
[3]; [14]
  Difference (log2 fold change of enrichment): 0.45
[4]; [14]
  Difference (log2 fold change of enrichment): 2.66

## C#Cc1cccc(-c2cc(NC(=O)CC3CCN(C#N)C3)on2)c1 (stereo not shown) [IMP-2587]
[5]; [15]
  Difference (log2 fold change of enrichment): 1.70
[6]; [15]
  Difference (log2 fold change of enrichment): 3.97
[7]; [15]
  Difference (log2 fold change of enrichment): 2.95
[1]; IMP-2587 labelling vs DMSO, HEK293T (Table S2, Fig.5a)
  Difference (log2 fold change of enrichment): 1.32
[8]; [15]
  Difference (log2 fold change of enrichment): 2.06
[9]; [15]
  Difference (log2 fold change of enrichment): 2.58
[10]; [15]
  Difference (log2 fold change of enrichment): 2.01
[11]; [15]
  Difference (log2 fold change of enrichment): 4.10
[12]; [15]
  Difference (log2 fold change of enrichment): 2.95
[13]
  Difference (log2 fold change of enrichment): 0.76

## N#CN1CC[C@H](CC(=O)Nc2cc(-c3cccc(Cl)c3)no2)C1 [compound 1, reference compound]
[5]; [16]
  Difference (log2 fold change of enrichment): -1.60
[6]; [16]
  Difference (log2 fold change of enrichment): -3.46
[7]; [16]
  Difference (log2 fold change of enrichment): -1.88
[8]; [16]
  Difference (log2 fold change of enrichment): -1.95
[9]; [16]
  Difference (log2 fold change of enrichment): -2.58
[10]; [16]
  Difference (log2 fold change of enrichment): -1.86
[11]; [16]
  Difference (log2 fold change of enrichment): -3.82
[12]; [16]
  Difference (log2 fold change of enrichment): -2.59

## N#CN1CC[C@@H](NC(=O)c2cc(-c3ccccc3Oc3ccccc3)n[nH]2)C1 [compound 3, reference compound]
[2]; [17]
  Difference (log2 fold change of enrichment): -0.44
[3]; [17]
  Difference (log2 fold change of enrichment): -0.40
[4]; [17]
  Difference (log2 fold change of enrichment): -2.38
